Data as given in EP0383856B1, “USE OF PEPTIDES FOR INHIBITING BLOOD VESSEL BLOCKAGE” (SOCIETE DE CONSEILS DE […] D'APPLICATIONS SCIENTIFIQUES …, priority 1988, dated 1989).
Several values for one entry are separate records, joined by “and”; a condition that tells them apart may be missing. Equal entries are not always repeated. Where two headings read alike, the source gives them in different places.

Key:
[1] = test system: growth hormone release; conditions: in vivo, from Heiman et al., Coy et al., Tolis et al., cited from earlier work
[2] = test system: Myointimal Hyperplasia; test: Myointimal hyperplasia in rabbits after balloon angioplasty of iliac artery and aorta (morphometry); format: in vivo, white New Zealand rabbits; conditions: for percentage of inhibition of myointimal hyperplasia: 20 µg/kg/d; for % Intimal hyperplasia, Mean: group mean; for % Intimal hyperplasia: individual samples
Description: Female and Male, white New Zealand rabbits (2.8-3.0 kg) were divided into two groups (A and B). Group A (vehicle control) received subcutaneous injections of physiological saline (0.2 ml) twice daily. […] The animals were treated the day before angioplasty, and until sacrifice about 3 weeks later. The angioplasty was done under general anesthesia with Ketamine and Xylazine. Each animal's left iliac artery and aorta were denuded with an angioplasty catheter (Fogarty). The angioplasty catheter was inserted into the left femoral artery and passed through the vessel to the thoracic aorta. The catheter was then reciprocated three times. The animals were all sacrificed from days 22-24 after angioplasty. The aorta and iliac arteries were fixed in situ via perfusion with formaldehyde under constant perfusion pressure.
Intimal hyperplasia was determined on elastin-stained (Van Giesen) horizontally-cut sections. The sections were obtained from (i) the aorta at the level of the renal artery, (ii) the common iliac artery at the level of bifurcation, and (iii) the external iliac artery just above the inguinal ligament. The area of intimal hyperplasia and total vessel area were determined by morphometry. The percentage of intimal hyperplasia was expressed as follows: [formula] Single determinations were made on three segments of each aorta and the two iliac arteries of each animal. The percentage of intimal hyperplasia was determined as the mean of the two closest measurements of each vessel.

[3] = test system: myointimal proliferation of the carotid artery; test: Air-drying injury of the rat carotid artery, myointimal proliferation (maximal intimal/media ratio, morphometry); format: in vivo, Sprague-Dawley rats
Description: Male Sprague-Dawley rats, weighing […], obtained from Charles River were kept under controlled lighting conditions and fed rat chow and water ad libitum. Under sodium pentobarbital anesthesia the intima of the right carotid artery was subjected to an air-drying injury described by Fishman et al, Lab Invest., 32, 339 (1975). This procedure causes intimal hyperplasia that largely consists of proliferating intimal smooth muscle cells. In this model approximately 4 cm of the vessel is isolated and drained of blood. Air (20 ml/min) is blown through a 30 gauge needle for 5 min whereafter blood flow is reestablished. The contralateral carotid artery was also exposed but not air-dried. The rats were sacrificed 15 days later.
The experiment consisted of a control group and ten treatment groups. The somatostatin analogs used were hepta- or octapeptides, namely BIM 23014 (Angiopeptin), BIM 23012, BIM 23027, BIM 23030 and BIM 23034. […] The animals were pretreated two days prior to the procedure and for a further five days following the endothelial injury. Two additional groups of animals were added in order to study whether Angiopeptin (20 µg/kg/day and 50 µg/kg/day) administered 30 min prior to the endothelial injury and for a further five days would protect against the myointimal proliferation.
The animals were sacrificed on day 15 following the injury by exsanguination. The vascular system was flushed with normal saline and perfusion-fixed at 80 mmHg with 10% formalin. The carotid arteries were subsequently fixed, embedded and sectioned for light microscopy and morphometric analysis. The maximal intimal/media ratio is the distance from the lumen to the internal elastic lamina and the distance from the internal elastic lamina to the external elastic lamina. The distances were determined in each vessel using a digitizing system attached to a light microscope. The determinations were performed on three different cross sections of the vessel and each section was measured three times. The mean was calculated for each vessel. Differences between the groups were evaluated using Student's unpaired t-test.

[4] = test system: myointimal cell proliferation in the aortas of rabbits; test: Rabbit aorta 72 hours after balloon angioplasty: wet weight, protein, DNA/protein, 3-H thymidine incorporation; format: in vivo, New Zealand White Rabbits; conditions: for Levels of Proteins (total protein content of the injured aortas): Fig. 2; for DNA/Protein Ratio: Fig. 3; for Thymidine (3-H) Incorporation (rates of cell proliferation): Fig. 4
Description: New Zealand White Rabbits were anesthetised with Rompun (Xylazine) and Ketalar (Ketamine) and a cannula (3F Fogarty) was inserted from the femoral artery. The balloon was inflated at a constant pressure and the aorta was deendothelialised by angioplasty. The process was repeated three times and the wound site was closed. The animals were sacrificed 72 hours after balloon angioplasty and after removing the adventitia the aorta was cut into fine rings. These rings were incubated in the presence of 3-H thymidine and the radioactivity was determined after processing the tissue. Simultaneous measurements of DNA and protein contents were also made in these tissues.
Eight injections of Angiopeptin were made: on the morning and evening of the day prior to ballooning; two on the day of the procedure; and two on each of the following two days. The total daily dose was 2, 20, or 200 µg/Kg body weight.

[5] = test system: smooth muscle cell proliferation; test: Primate balloon catheter injury of aorta and femoral arteries, smooth muscle cell proliferation; format: in vivo, cynomologous macaques; conditions: aorta and left and right femoral arteries; i.m. slow release system, total 50 µg/kg/day; one treated animal versus one control; five weeks
Description: In order to obtain a primate coronary angioplasty model which would be suited for evaluation of Angiopeptin, a feasibility study was performed on primates which were made available from the colony at Bowman-Gray Medical School, Winston-Salem, North Carolina. These animals were culled from the colony due to failure of the primates to satisfactorily elevate blood lipids when administered a high cholesterol diet. Young male cynomologous macaques weighing approximately 3.5 kg were used after an equilibration period of more than a week in a primate facility.
The animals were sedated with Ketamine and maintained with 1% halothane in oxygen. The aorta and femoral arteries were injured by a balloon catheter (USCI, Band). After five weeks the primates were anesthetized and sacrificed. The aorta and femoral arteries were removed and fixed in formaldehyde for morphometric analysis. […]
The maximal intimal/media ratio (distance from lumen to internal elastic lamina/distance from internal elastic lamina to external elastic lamina) was determined in each vessel using a digitizing system attached to a light microscope. The determinations were done on three different cross sections of the vessel and each section was measured three times and each three measurements were averaged.

[6] = test system: smooth muscle pig left coronary artery explants; test: H3-thymidine incorporation in denuded pig left coronary artery explants; format: cell-based, Domestic pig; conditions: 24 hr, individual segments
Description: Domestic pig hearts were obtained from a slaughter house immediately after the animals were sacrificed. The hearts were harvested and placed in ice-cold Kreb's Ringer buffer and transported to the laboratory. The left coronary artery (LAD) was dissected in aseptic conditions and divided into pieces of 5 mm. The segments were denuded from the endothelium by gently introducing a metallic rod in the lumen. The tissues were placed in sterile multiwell culture dishes in 1 ml of culture media (DMEM with antibiotics) and without fetal calf serum. H³-thymidine (2.5 uCi/ml) and increasing concentrations of angiopeptin (10-1000 ng/ml) were added to the medium. Segments which were incubated with 3 different concentrations of forskolin were used as a positive control in each experiment. The incubation period was 24 hr at 37°C and 5% CO₂. The tissues were washed with phosphate saline buffer and placed in a solution of cold thymidine for one hour and then frozen in liquid nitrogen, ground and lysed with a hypotonic solution. The lysed tissues were further incubated with proteinase K overnight at 50°C. The radioactivity, content of protein and DNA were measured.

[7] = common iliac artery, female rabbits
[8] = common iliac artery, male rabbits
[9] = external iliac artery, female rabbits
[10] = external iliac artery, male rabbits

CC(C)[C@@H]1NC(=O)[C@H](CCCCN)NC(=O)[C@@H](Cc2c[nH]c3ccccc23)NC(=O)[C@H](Cc2ccc(O)cc2)NC(=O)[C@@H](NC(=O)[C@H](N)Cc2ccc3ccccc3c2)CSSC[C@@H](C(=O)N[C@H](C(N)=O)[C@@H](C)O)NC1=O [Angiopeptin, D-Nal-Cys-Tyr-D-Trp-Lys-Val-Cys-Thr-NH₂]
inhibition of growth hormone release [1]: less active | inhibition of growth hormone release ([1]; listed as BIM 23014): potent inhibitors of growth hormone release | percentage of inhibition of myointimal hyperplasia ([2]; aorta, female rabbits): ~43% | % Intimal hyperplasia, Mean ([2]; aorta, female rabbits): 12.5% | % Intimal hyperplasia ([2]; aorta, female rabbits): 13.0% and 10.7% and 12.8% and 19.5% and 6.4% | percentage of inhibition of myointimal hyperplasia ([2]; aorta, male rabbits): ~32% | % Intimal hyperplasia, Mean ([2]; aorta, male rabbits): 14.8% | % Intimal hyperplasia ([2]; aorta, male rabbits): 15.9% and 17.0% and 12.4% and 13.3% and 13.8% and 15.7% (2×) | percentage of inhibition of myointimal hyperplasia [2, 7]: ~33% | % Intimal hyperplasia, Mean [2, 7]: 13.1% | % Intimal hyperplasia [2, 7]: 6.5% and 9.3% and 9.5% and 19.7% and 20.5% and 15.3% and 16.6% and 7.7% | percentage of inhibition of myointimal hyperplasia [2, 8]: ~39% | % Intimal hyperplasia, Mean [2, 8]: 14.1% | % Intimal hyperplasia [2, 8]: 14.9% and 16.0% and 6.4% and 17.4% and 13.9% and 15.8% and 14.0% | percentage of inhibition of myointimal hyperplasia [2, 9]: about 41% | % Intimal hyperplasia, Mean [2, 9]: 20.7% | % Intimal hyperplasia [2, 9]: 17.8% and 26.4% and 15.2% and 21.3% and 33.6% and 24.1% and 20.6% and 6.6% | percentage of inhibition of myointimal hyperplasia [2, 10]: ~20% | % Intimal hyperplasia, Mean [2, 10]: 24.4% | % Intimal hyperplasia [2, 10]: 30.5% and 19.2% and 25.7% and 26.5% and 22.3% and 37.9% and 22.2% | myointimal proliferation of the carotid artery following endothelial injury by air drying ([3]; 20 µg/kg/day s.c. in two divided doses, from two days prior to injury and five days after, sacrifice day 15): effective | myointimal proliferation of the carotid artery following endothelial injury by air drying ([3]; 50 µg/kg/day s.c. in two divided doses, from two days prior to injury and five days after, sacrifice day 15): effective | myointimal proliferation ([3]; 50 µg/kg/day, started 30 min prior to the arterial injury and for a further five days): significantly (p<0.01) inhibited | myointimal proliferation of the carotid artery following endothelial injury by air drying ([3]; overall statement for the doses used (20 and 50 µg/kg/day s.c.), started two days prior to injury): inhibited significantly (P<0.01) | Levels of Proteins (total protein content of the injured aortas) ([4]; 2 µg/kg body wt.): lowered the total protein content | DNA/Protein Ratio ([4]; 20 µg/kg body weight): significantly lowered | Thymidine (3-H) Incorporation (rates of cell proliferation) ([4]; 20 µg/kg body wt.): significantly lower | DNA/Protein Ratio ([4]; 200 µg/kg body wt.): reflected the inhibitory influence | Thymidine (3-H) Incorporation (rates of cell proliferation) ([4]; 200 µg/kg): still inhibited the myointimal proliferation | Wet Weight of aortas ([4]; 2, 20 and 200 µg/kg body wt. daily, 72 hours after balloon angioplasty, Fig. 1): does not seem to influence | Levels of Proteins (total protein content of the injured aortas) ([4]; higher doses (20 and 200 µg/kg body wt.)): did not affect the levels of total proteins | inhibition of smooth muscle cell proliferation [5]: nearly complete inhibition | CPM ([6]; Angiopeptin 10 ng/ml): 35113.84 CPM and 46392.32 CPM and 27312.80 CPM and 55980.00 CPM | CPM ([6]; Angiopeptin 20 ng/ml): 26279.81 CPM and 39027.27 CPM and 39706.01 CPM and 21562.08 CPM | CPM ([6]; Angiopeptin 50 ng/ml): 24269.18 CPM and 40768.09 CPM and 18983.78 CPM and 18942.16 CPM | CPM ([6]; Angiopeptin 100 ng/ml): 20794.85 CPM and 32402.31 CPM and 22033.48 CPM and 26227.64 CPM | CPM ([6]; Angiopeptin […] (so in the source)): 18325.51 CPM and 27260.98 CPM and 30226.99 CPM and 32344.58 CPM
